Measurements from patent US10745741B2, “Cell barcoding in microfluidics” (EUROPEAN MOLECULAR BIOLOGY LABORATORY, priority 2015, dated 2020).

Key:
FoxM1 = FoxM1 expression by qPCR on barcoded mRNA from drug-treated MCF-7 cells in droplets; assay type: cell-based; conditions: 12 h at 37° C., barcode combination 1A, qPCR (FIG. 8B)
Description: (§1) Barcoding cellular mRNA according to particular drug treatments. The combinatorial microfluidic chip was used to generate droplets containing the following components: • MCF-7 cells+media+ligation mix+barcode fragment BC-1+barcode fragment BC-A+Thiostrepton • MCF-7 cells+media+ligation mix+barcode fragment BC-2+barcode fragment BC-B+Doxorubicin treated cells • MCF-7 cells+media+ligation mix+barcode fragment BC-1+barcode fragment BC-B The resulting emulsions were collected separately in droplet traps (as shown in Hu H et al., Lab Chip 2015) for 12 h at 37° C., before cell lysis was achieved by repeated freezing and thawing. Then the emulsion was broken and hybridized cellular mRNA was purified using streptaviding-coated beads. This step ensures that only mRNA hybridized to ligated barcode combinations (e.g. 1A for the Thiostrepton sample) is isolated. Subsequently reverse transcription was carried out and the abundance of target genes was assessed by qPCR using primers specific for the target genes. Barcode fragment combination is shown exemplary for fragments BC-A and BC-1 in FIG. 7, as well as the reverse transcription and qPCR using the barcode. Expression levels of p21 (FIG. 8A) and FoxM1 (FIG. 8B) were normalized to Actb expression and the fold change in expression was determined between treated and untreated cells.

p21 = p21 expression by qPCR on barcoded mRNA from drug-treated MCF-7 cells in droplets; assay type: cell-based; conditions: 12 h at 37° C., barcode 2B, qPCR (FIG. 8A)
Description: as §1

SMILES | FoxM1 expression normalized to Actb expression, fold change between treated and untreated cells (FoxM1) | p21 expression normalized to Actb expression, fold change between treated and untreated cells (p21)
C=C(NC(=O)C(=C)NC(=O)c1csc(C2=N[C@@H]3c4csc(n4)[C@H]4NC(=O)c5csc(n5)[C@H]([C@](C)(O)[C@@H](C)O)NC(=O)[C@H]5CSC(=N5)/C(=C/C)NC(=O)[C@H]([C@@H](C)O)NC(=O)c5csc(n5)[C@]3(CC2)NC(=O)[C@H](C)NC(=O)C(=C)NC(=O)[C@H](C)NC(=O)[C@H]([C@@H](C)CC)N[C@@H]2C=Cc3c([C@H](C)O)cc(nc3[C@H]2O)C(=O)O[C@@H]4C)n1)C(N)=O [Thiostrepton] | significant downregulation | 
COc1cccc2c1C(=O)c1c(O)c3c(c(O)c1C2=O)C[C@@](O)(C(=O)CO)C[C@@H]3O[C@H]1C[C@H](N)[C@H](O)[C@H](C)O1 [Doxorubicin] |  | significant upregulation
